# Assay results reported in US11845759B2, “Opioid compounds and uses thereof” (priority 2018, dated 2023).
# Columns and labels:
# [1] = Hydrolysis in simulated intestinal fluid at 37° C.; settings: for 6-OAc-Oxy (%): 6-OAc-Oxy in simulated intestinal fluid, 37° C.
# [2] = Hydrolysis in human blood serum at 37° C.; settings: for 6-OAc-Oxy (%): 6-OAc-Oxy in human blood serum, 37° C.
# [3] = target: T1, μ-opioid receptor (Homo sapiens (Human), UniProt P35372); type: binding
# [4] = Hydrolysis in HCl solutions; type: physicochemical; settings: 6-OAc-Oxy
# [5] = Hydrolysis in pH buffer/EtOH solutions; type: physicochemical; settings: 6-OAc-Oxy
# [6] = Hydrolysis in simulated gastric fluid at 37° C.; settings: 6-OAc-Oxy in simulated Gastric fluid
# [7] = target: T1, μ-opioid receptor; assay: [35S]GTPγS μ-opioid receptor functional assay; type: biochemical
# [8] = pH = 7 buffer (1:1 EtOH:H2O), 0 hrs
# [9] = pH = 7 buffer (1:1 EtOH:H2O), 0.5 hrs
# [10] = pH = 7 buffer (1:1 EtOH:H2O), 2 hrs
# [11] = pH = 7 buffer (1:1 EtOH:H2O), 26 hrs
# [12] = pH = 8 buffer (1:1 EtOH:H2O), 0 hrs
# [13] = pH = 8 buffer (1:1 EtOH:H2O), 0.5 hrs
# [14] = pH = 8 buffer (1:1 EtOH:H2O), 2 hrs
# [15] = pH = 8 buffer (1:1 EtOH:H2O), 26 hrs
# [16] = pH = 9 buffer (1:1 EtOH:H2O), 0 hrs
# [17] = pH = 9 buffer (1:1 EtOH:H2O), 0.5 hrs
# [18] = pH = 9 buffer (1:1 EtOH:H2O), 4 hrs
# [19] = pH = 9 buffer (1:1 EtOH:H2O), 8 hrs
# [20] = pH = 9 buffer (1:1 EtOH:H2O), 22 hrs
# [21] = pH = 10 buffer (1:1 EtOH:H2O), 0 hrs
# [22] = pH = 10 buffer (1:1 EtOH:H2O), 0.5 hrs
# [23] = pH = 10 buffer (1:1 EtOH:H2O), 2 hrs
# [24] = pH = 10 buffer (1:1 EtOH:H2O), 4 hrs
# [25] = pH = 11 buffer (1:1 EtOH:H2O), 0 hrs
# [26] = pH = 11 buffer (1:1 EtOH:H2O), 0.5 hrs
smiles,measurement,setting,value
COc1ccc2c3c1OC1C(OC(C)=O)=CC[C@@]4(O)[C@@H](C2)N(C)CC[C@]314 (some centres unmarked) [6-acetyl oxycodone],6-OAc-Oxy (%),[1]; 0 hrs,89.4%
same,6-OAc-Oxy (%),[1]; 0.5 hrs,39.8%
same,6-OAc-Oxy (%),[1]; 2 hrs,0.7%
same,6-OAc-Oxy (%),[1]; 4 hrs,0.0%
same,time to hydrolyze releasing oxycodone,"[1]; mixture in simulated intestinal fluid (37° C., pH 6.8, pancreatine)",less than 2 hours
same,6-OAc-Oxy (%),[2]; 0 hrs,89.4%
same,6-OAc-Oxy (%),[2]; 0.083 hrs (5 min),0.65%
same,6-OAc-Oxy (%),[2]; 0.5 hrs,0.39%
same,hydrolysis in human blood serum (in words),[2]; human blood serum (37° C.),hydrolyzed quickly
same,hydrolysis to oxycodone (in words),"[2]; human blood serum (37° C.), five minutes",mostly hydrolyzed to oxycodone
same,Ki,[3],41 nM
same,Ki compared with that of oxycodone (in words),[3],comparable
same,6-OAc-Oxy (%),"[4]; 0.1N HCl solution, 0 hrs",89.4%
same,6-OAc-Oxy (%),"[4]; 0.1N HCl solution, 0.5 hrs",89.0%
same,Oxy (%),"[4]; 0.1N HCl solution, 0.5 hrs",6.43%
same,6-OAc-Oxy (%),"[4]; 0.1N HCl solution, 2 hrs",86.4%
same,Oxy (%),"[4]; 0.1N HCl solution, 2 hrs",7.8%
same,6-OAc-Oxy (%),"[4]; 0.1N HCl solution, 8 hrs",86.1%
same,Oxy (%),"[4]; 0.1N HCl solution, 8 hrs",9.5%
same,6-OAc-Oxy (%),"[4]; 0.1N HCl solution, 24 hrs",67.3%
same,Oxy (%),"[4]; 0.1N HCl solution, 24 hrs",30.1%
same,6-OAc-Oxy (%),"[4]; 1N HCl solution, 0 hrs",89.4%
same,6-OAc-Oxy (%),"[4]; 1N HCl solution, 0.5 hrs",81.5%
same,Oxy (%),"[4]; 1N HCl solution, 0.5 hrs",16.6%
same,6-OAc-Oxy (%),"[4]; 1N HCl solution, 2 hrs",61.0%
same,Oxy (%),"[4]; 1N HCl solution, 2 hrs",30.3%
same,6-OAc-Oxy (%),"[4]; 1N HCl solution, 4 hrs",42.0%
same,Oxy (%),"[4]; 1N HCl solution, 4 hrs",56.4%
same,6-OAc-Oxy (%),"[4]; 1N HCl solution, 8 hrs",18.2%
same,Oxy (%),"[4]; 1N HCl solution, 8 hrs",80.8%
same,6-OAc-Oxy (%),"[4]; 1N HCl solution, 24 hrs",1.7%
same,Oxy (%),"[4]; 1N HCl solution, 24 hrs",95.3%
same,6-OAc-Oxy (%),[5]; [8],89.4%
same,Oxy (%),[5]; [8],9.4%
same,6-OAc-Oxy (%),[5]; [9],87.2%
same,Oxy (%),[5]; [9],9.5%
same,6-OAc-Oxy (%),[5]; [10],87.9%
same,Oxy (%),[5]; [10],8.2%
same,6-OAc-Oxy (%),[5]; [11],77.9%
same,Oxy (%),[5]; [11],12.9%
same,6-OAc-Oxy (%),[5]; [12],89.4%
same,Oxy (%),[5]; [12],9.4%
same,6-OAc-Oxy (%),[5]; [13],87.4%
same,Oxy (%),[5]; [13],10.4%
same,6-OAc-Oxy (%),[5]; [14],87.0%
same,Oxy (%),[5]; [14],8.8%
same,6-OAc-Oxy (%),[5]; [15],75.3%
same,Oxy (%),[5]; [15],20.9%
same,6-OAc-Oxy (%),[5]; [16],89.4%
same,Oxy (%),[5]; [16],9.0%
same,6-OAc-Oxy (%),[5]; [17],89.4%
same,Oxy (%),[5]; [17],9.0%
same,6-OAc-Oxy (%),[5]; [18],86.3%
same,Oxy (%),[5]; [18],11.9%
same,6-OAc-Oxy (%),[5]; [19],75.5%
same,Oxy (%),[5]; [19],14.9%
same,6-OAc-Oxy (%),[5]; [20],66.5%
same,Oxy (%),[5]; [20],26.9%
same,6-OAc-Oxy (%),[5]; [21],89.4%
same,Oxy (%),[5]; [21],9.0%
same,6-OAc-Oxy (%),[5]; [22],32.3%
same,Oxy (%),[5]; [22],65.2%
same,6-OAc-Oxy (%),[5]; [23],1.6%
same,Oxy (%),[5]; [23],96.8%
same,6-OAc-Oxy (%),[5]; [24],1.2%
same,Oxy (%),[5]; [24],98.3%
same,6-OAc-Oxy (%),[5]; [25],89.4%
same,Oxy (%),[5]; [25],9.0%
same,6-OAc-Oxy (%),[5]; [26],1.6%
same,Oxy (%),[5]; [26],97.1%
same,6-OAc-Oxy (%),[6]; 0 hrs,89.4%
same,6-OAc-Oxy (%),[6]; 2 hrs,68.4%
same,6-OAc-Oxy (%),[6]; 4 hrs,66.1%
same,6-OAc-Oxy (%),[6]; 8 hrs,58.1%
same,6-OAc-Oxy (%),[6]; 24 hrs,46.2%
same,EC50,[7],1690 nM
same,% Response Agonist,"[7]; Conc. 3 μM, criteria ≥± 50%",62%
